From patent US20100120762A1, “Triazine derivatives as inhibitors of phosphodiesterases” (WYETH, priority 2008, published 2010)
Where two headings read alike, the source gives them in different places.

Legend:
PDE10A1 (AB 020593) = molecular target: T1, PDE10A1 (AB 020593) (Homo sapiens, UniProt Q9Y233); assay: Inhibition of recombinant PDE10A (baculovirus/SF21 system); type: biochemical
T1 construct: made in house; host or cells: baculovirus / SF21 insect cells (gene synthesized by Entelechon GmbH)
Experimental: The DNA of PDE10A1 (AB 020593, 2340 bp) was synthesized and cloned into the vector pCR4.TOPO (Entelechon GmbH, Regensburg, Germany). The gene was than inserted into a baculovirus vector, ligated with the baculovirus DNA. The enzyme-protein was expressed in SF21-cells. The enzyme was isolated from these cells by harvesting the cells by an centrifugation at 500 g to collect the cells.
The cells were resuspended in 50 mM Tris-HCl/1 mM EDTA/250 mM Sucrose buffer, pH=7.4 (Sigma, Deisenhofen, Germany; Merck, Darmstadt, Germany) and lysed by sonification of the cells (three times for 15 seconds, Labsonic U, Fa. Braun, Degersheim, Switzerland, level “high”). The cytosolic PDE10A was obtained by a centrifugation at 48,000 g for 1 h in the supernatant and stored at −70° C.
PDE activity was determined in a one step procedure in microtiter plates. The reaction mixture of 100 μl contained 50 mM Tris-HCl/5 mM MgCl2 buffer (pH=7.4, Sigma, Deisenhofen, Germany; Merck, Darmstadt, Germany) 0.1 μM [3H]-cAMP (Amersham, Buckinghamshire, UK) and the enzyme. Non-specific enzyme activity was determined without the enzyme. The reaction was initiated by addition of the substrate solution and was carried out at 37° C. for 30 minutes. Enzymatic activity then was stopped by addition of 25 μl Ysi-SPA-beads (Amersham-Pharmacia). One h later the mixture was measured in a liquid scintillation counter for microtiter plates (Microbeta Trilux). The Biomek 2000 (Beckman) was used routinely for pipetting of the incubation mixture. The optimal amount of enzyme in the assay has been determined and optimized for each enzyme preparation separately before using the enzyme in compound testing. For determination of IC50 values the Hill-plot, 2-parameter-model, was used.

PDE2A (NM002599) = molecular target: T2, PDE2A (NM002599) (Homo sapiens, UniProt O00408); assay: Inhibition of recombinant PDE2A (expressed in baculovirus/SF21-cells); type: biochemical
T2 construct: made in house; host or cells: baculovirus / SF21 insect cells
Experimental: PDE2A (NM002599) was cloned and the gene was inserted in the baculovirus and the enzyme-protein expressed in SF21-cells. The enzyme was isolated from these cells by harvesting the cells by an centrifugation at 200 g to collect the cells. The cells were resuspended in 50 mM Tris-HCl/5 mM MgCl2 buffer (pH=7.4) (Sigma, Deisenhofen, Germany; Merck, Darmstadt, Germany) and lysed by a sonication of the cells (three times for 15 seconds, Labsonic U, Fa. Braun, Degersheim, Switzerland, level “high”). The membrane fraction of PDE2A was obtained by a centrifugation at 48 000 g for 1 h, resuspended in buffer and stored at −70° C.
PDE2A activity was determined in a one step procedure in microtiterplates. The reaction mixture of 100 μl contained 50 mM Tris-HCl/5 mM MgCl2 buffer (pH=7.4) (Sigma, Deisenhofen, Germany; Merck, Darmstadt, Germany), 0.5 μM [3H]-cAMP (Amersham, Buckinghamshire, UK), 1000 nM cGMP and the enzyme. Non-specific enzyme activity was tested in the absence of cGMP. The reaction was initiated by addition of the substrate solution and was carried out at 37° C. for 30 minutes. Enzymatic activity then was stopped by addition of 25 μl SPA-beads (Amersham-Pharmacia). One hour later the mixture was measured in a liquid scintillation counter for microtiterplates (Microbeta Trilux). For pipetting of the incubation mixture the robot Biomek (Fa. Beckman) was routinely used.
The optimal amount of enzyme in the assay has been determined and optimised for each enzyme preparation separately before using the enzyme in compound testing. For determination of IC50 values the Hill-plot, 2-parameter-model, was used.

[1] = recombinant cytosolic PDE10A, 0.1 μM [3H]-cAMP, 37° C., 30 minutes, SPA, read-out: PDE10A IC50
[2] = recombinant PDE2A, 0.5 μM [3H]-cAMP, 1000 nM cGMP, 37° C., 30 minutes, SPA, read-out: PDE2A IC50

T1 sequence (Q9Y233 other isoform, or with tags, fused parts or gaps): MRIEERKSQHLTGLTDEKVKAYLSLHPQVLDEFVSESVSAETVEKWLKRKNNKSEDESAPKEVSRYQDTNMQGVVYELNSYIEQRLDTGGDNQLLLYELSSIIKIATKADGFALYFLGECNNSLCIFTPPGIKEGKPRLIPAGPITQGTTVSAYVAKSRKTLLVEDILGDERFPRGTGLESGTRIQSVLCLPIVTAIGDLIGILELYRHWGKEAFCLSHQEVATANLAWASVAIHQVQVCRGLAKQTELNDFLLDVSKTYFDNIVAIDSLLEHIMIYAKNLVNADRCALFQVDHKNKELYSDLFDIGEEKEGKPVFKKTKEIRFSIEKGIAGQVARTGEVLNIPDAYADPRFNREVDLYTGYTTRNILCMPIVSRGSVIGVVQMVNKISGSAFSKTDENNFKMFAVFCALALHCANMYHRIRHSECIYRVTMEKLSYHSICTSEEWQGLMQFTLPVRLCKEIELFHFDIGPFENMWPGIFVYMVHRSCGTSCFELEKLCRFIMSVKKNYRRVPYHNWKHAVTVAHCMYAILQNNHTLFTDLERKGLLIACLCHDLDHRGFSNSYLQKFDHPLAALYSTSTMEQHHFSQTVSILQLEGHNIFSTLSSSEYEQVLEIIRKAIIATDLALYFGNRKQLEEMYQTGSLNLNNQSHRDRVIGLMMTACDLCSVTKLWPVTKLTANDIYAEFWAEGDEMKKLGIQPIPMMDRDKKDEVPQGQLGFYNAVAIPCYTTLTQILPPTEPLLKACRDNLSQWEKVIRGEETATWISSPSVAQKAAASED
T2 sequence (O00408 whole entry): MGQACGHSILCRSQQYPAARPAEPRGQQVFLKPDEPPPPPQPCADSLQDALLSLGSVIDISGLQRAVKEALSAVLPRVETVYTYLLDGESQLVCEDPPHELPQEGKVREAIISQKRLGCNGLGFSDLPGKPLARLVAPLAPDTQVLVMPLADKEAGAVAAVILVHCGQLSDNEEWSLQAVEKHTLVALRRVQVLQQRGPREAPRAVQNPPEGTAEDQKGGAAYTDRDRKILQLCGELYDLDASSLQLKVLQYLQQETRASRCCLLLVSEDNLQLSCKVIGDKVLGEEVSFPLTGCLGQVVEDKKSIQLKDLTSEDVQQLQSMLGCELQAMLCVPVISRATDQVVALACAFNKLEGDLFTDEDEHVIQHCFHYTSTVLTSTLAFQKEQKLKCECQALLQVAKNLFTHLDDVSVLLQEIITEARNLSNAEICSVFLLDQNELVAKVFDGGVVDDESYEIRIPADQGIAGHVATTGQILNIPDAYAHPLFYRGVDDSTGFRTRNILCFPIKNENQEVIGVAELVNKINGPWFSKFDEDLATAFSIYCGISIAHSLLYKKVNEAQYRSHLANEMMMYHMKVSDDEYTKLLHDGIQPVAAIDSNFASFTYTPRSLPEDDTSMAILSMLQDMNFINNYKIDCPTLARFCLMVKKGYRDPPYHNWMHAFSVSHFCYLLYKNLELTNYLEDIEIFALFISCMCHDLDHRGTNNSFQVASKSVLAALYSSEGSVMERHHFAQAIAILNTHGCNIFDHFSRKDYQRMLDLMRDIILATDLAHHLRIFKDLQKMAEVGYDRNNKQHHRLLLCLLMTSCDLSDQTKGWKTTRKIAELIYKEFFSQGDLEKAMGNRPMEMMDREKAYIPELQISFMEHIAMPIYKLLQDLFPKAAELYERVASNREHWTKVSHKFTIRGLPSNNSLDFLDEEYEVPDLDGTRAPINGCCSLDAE

| Compound | IC50 (PDE10A1 (AB 020593); [1]) | IC50 (PDE2A (NM002599); [2]) | IC50 (PDE10A1 (AB 020593)) | IC50 (PDE2A (NM002599)) |
| --- | --- | --- | --- | --- |
| COc1ccc2nnc3c(C)nc(-c4cccc(C)c4F)n3c2n1 [Example 63, 9-(2-fluoro-3-methylphenyl)-2-methoxy-7-methylimidazo[5,1-c]pyrido[2,3-e][1,2,4]triazine] | 86.8 nM | 55.2 nM | – | – |
| COc1ccc2nnc3c(C)nc(-c4ccncc4C)n3c2n1 [Example 64, 2-methoxy-7-methyl-9-(3-methylpyridin-4-yl)imidazo[5,1-c]pyrido[2,3-e][1,2,4]triazine] | 85.6 nM | 56.2 nM | – | – |
| COc1ccc2nnc3c(C)nc(-c4c(C)nn(C)c4C)n3c2n1 [Example 65, 2-methoxy-7-methyl-9-(1,3,5-trimethyl-1H-pyrazol-4-yl)imidazo[5,1-c]pyrido[2,3-e][1,2,4]triazine] | 120 nM | 22.9 nM | – | – |
| COc1ccc2nnc3c(C)nc(-c4ccc(F)nc4C)n3c2n1 [Example 66, 9-(6-fluoro-2-methylpyridin-3-yl)-2-methoxy-7-methylimidazo[5,1-c]pyrido[2,3-e][1,2,4]triazine] | 225 nM | 49 nM | – | – |
| COc1ccc2nnc3c(C)nc(-c4cnc(F)c(C)c4)n3c2n1 [Example 67, 9-(6-fluoro-5-methylpyridin-3-yl)-2-methoxy-7-methylimidazo[5,1-c]pyrido[2,3-e][1,2,4]triazine] | 226 nM | 55.6 nM | – | – |
| COc1ccc2nnc3c(C)nc(-c4ccc(C)cc4F)n3c2n1 [Example 69, 9-(2-fluoro-4-methylphenyl)-2-methoxy-7-methylimidazo[5,1-c]pyrido[2,3-e][1,2,4]triazine] | 49.9 nM | 48.3 nM | – | – |
| COc1ccc2nnc3c(C)nc(-c4ccccc4OC)n3c2n1 [Example 70, 2-methoxy-9-(2-methoxyphenyl)-7-methylimidazo[5,1-c]pyrido[2,3-e][1,2,4]triazine] | 83.4 nM | 108 nM | – | – |
| COc1ccc2nnc3c(C)nc(-c4cc(C)ccc4Cl)n3c2n1 [Example 71, 9-(2-chloro-5-methylphenyl)-2-methoxy-7-methylimidazo[5,1-c]pyrido[2,3-e][1,2,4]triazine] | 37.9 nM | 4.37 nM | – | – |
| COc1ccc2nnc3c(C)nc(-c4cc(C(F)(F)F)ccc4Cl)n3c2n1 [Example 72, 9-(2-chloro-5-(trifluoromethyl)phenyl)-2-methoxy-7-methylimidazo[5,1-c]pyrido[2,3-e][1,2,4]triazine] | 282 nM | 24.9 nM | – | – |
| COc1ccc2nnc3c(C)nc(-c4cc(F)ccc4C)n3c2n1 [Example 73, 9-(5-fluoro-2-methylphenyl)-2-methoxy-7-methylimidazo[5,1-c]pyrido[2,3-e][1,2,4]triazine] | 38 nM | 24.3 nM | – | – |
| CCOc1ccc(Cl)c(-c2nc(C)c3nnc4ccc(OC)nc4n23)c1 [Example 74, 9-(2-chloro-5-ethoxyphenyl)-2-methoxy-7-methylimidazo[5,1-c]pyrido[2,3-e][1,2,4]triazine] | 87.9 nM | 10.1 nM | – | – |
| COc1ccc2nnc3c(C)nc(-c4ccc(F)cc4Cl)n3c2n1 [Example 75, 9-(2-chloro-4-fluorophenyl)-2-methoxy-7-methylimidazo[5,1-c]pyrido[2,3-e][1,2,4]triazine] | 13.1 nM | 11.8 nM | – | – |
| COc1ccc2nnc3c(C)nc(-c4cc(OC(F)(F)F)ccc4Cl)n3c2n1 [Example 76, 9-(2-chloro-5-(trifluoromethoxy)phenyl)-2-methoxy-7-methylimidazo[5,1-c]pyrido[2,3-e][1,2,4]triazine] | 149 nM | 10.6 nM | – | – |
| COc1ccc2nnc3c(C)nc(-c4cscc4C)n3c2n1 [Example 77, 2-methoxy-7-methyl-9-(4-methylthiophen-3-yl)imidazo[5,1-c]pyrido[2,3-e][1,2,4]triazine] | 43.6 nM | 51.2 nM | – | – |
| COc1ccc2nnc3c(C)nc(-c4ccoc4)n3c2n1 [Example 78, 9-furan-3-yl-2-methoxy-7-methylimidazo[5,1-c]pyrido[2,3-e][1,2,4]triazine] | 482 nM | 1390 nM | – | – |
| COc1ccc2nnc3c(C)nc(-c4cnn(C)c4)n3c2n1 [Example 79, 2-methoxy-7-methyl-9-(1-methyl-1H-pyrazol-4-yl)imidazo[5,1-c]pyrido[2,3-e][1,2,4]triazine] | 362 nM | 523 nM | – | – |
| COc1ccc2nnc3c(C)nc(-c4cncnc4)n3c2n1 [Example 80, 2-methoxy-7-methyl-9-pyrimidin-5-ylimidazo[5,1-c]pyrido[2,3-e][1,2,4]triazine] | 5950 nM | 4070 nM | – | – |
| COc1ccc2nnc3c(C)nc(-c4ccc5[nH]ccc5c4)n3c2n1 [Example 81, 9-(1H-indol-5-yl)-2-methoxy-7-methylimidazo[5,1-c]pyrido[2,3-e][1,2,4]triazine] | – | – | 62.6 nM | 186 nM |
| COc1ccc2nnc3c(C)nc(-c4cc(F)cc(C(N)=O)c4)n3c2n1 [Example 82, 3-fluoro-5-(2-methoxy-7-methylimidazo[5,1-c]pyrido[2,3-e][1,2,4]triazin-9-yl)benzamide] | 141 nM | 279 nM | – | – |
| COc1ccc2nnc3c(C)nc(-c4ccc(Cl)c(C(N)=O)c4)n3c2n1 [Example 83, 2-chloro-5-(2-methoxy-7-methylimidazo[5,1-c]pyrido[2,3-e][1,2,4]triazin-9-yl)benzamide] | 233 nM | 639 nM | – | – |
| COc1ccc2nnc3c(C)nc(-c4ccc(C(N)=O)c(Cl)c4)n3c2n1 [Example 84, 2-chloro-4-(2-methoxy-7-methylimidazo[5,1-c]pyrido[2,3-e][1,2,4]triazin-9-yl)benzamide] | 158 nM | 423 nM | – | – |
| COc1ccc2nnc3c(C)nc(-c4cc(Cl)cc(Cl)c4Cl)n3c2n1 [Example 85, 2-methoxy-7-methyl-9-(2,3,5-trichlorophenyl)imidazo[5,1-c]pyrido[2,3-e][1,2,4]triazine] | 145 nM | 34.5 nM | – | – |
| COc1ccc2nnc3c(C)nc(-c4c(Cl)cccc4OC)n3c2n1 [Example 86, 9-(2-chloro-6-methoxyphenyl)-2-methoxy-7-methylimidazo[5,1-c]pyrido[2,3-e][1,2,4]triazine] | 54.5 nM | 12 nM | – | – |
| COc1ccc2nnc3c(C)nc(-c4cc(C#N)ccc4Cl)n3c2n1 [Example 87, 4-chloro-3-(2-methoxy-7-methylimidazo[5,1-c]pyrido[2,3-e][1,2,4]triazin-9-yl)benzonitrile] | 420 nM | 29.8 nM | – | – |
| COc1ccc2nnc3c(C)nc(-c4ccc(Cl)cc4Cl)n3c2n1 [Example 88, 9-(2,4-dichlorophenyl)-2-methoxy-7-methylimidazo[5,1-c]pyrido[2,3-e][1,2,4]triazine] | 15 nM | 15.1 nM | – | – |
| COc1ccc(-c2nc(C)c3nnc4ccc(OC)nc4n23)c(Cl)c1 [Example 89, 9-(2-chloro-4-methoxyphenyl)-2-methoxy-7-methylimidazo[5,1-c]pyrido[2,3-e][1,2,4]triazine] | 62.8 nM | 52.6 nM | – | – |
| COc1ccc2nnc3c(C)nc(-c4cccc(Cl)c4Cl)n3c2n1 [Example 90, 9-(2,3-dichlorophenyl)-2-methoxy-7-methylimidazo[5,1-c]pyrido[2,3-e][1,2,4]triazine] | 41 nM | 49.3 nM | – | – |
| COc1ccc2nnc3c(C)nc(-c4cccc(F)c4Cl)n3c2n1 [Example 91, 9-(2-chloro-3-fluorophenyl)-2-methoxy-7-methylimidazo[5,1-c]pyrido[2,3-e][1,2,4]triazine] | 11.8 nM | 17.2 nM | – | – |
